Laboratory results as given in ChEMBL document CHEMBL5537161, “Structure-Guided Design, Synthesis, and Antivirulence Assessment of Covalent Staphylococcus aureus Sortase A Inhibitors” (J Med Chem, 2024).
Values after ≈ are worked out from the molar mass of the structure shown.

Assays:
[1] = system: Staphylococcus aureus; experiment: Bactericidal activity against Staphylococcus aureus Newman assessed as reduction in bacterial growth incubated for 16 to 18 hrs; assay type: functional; settings: time 16-18 hrs
[2] = target: T1, Sortase A (Staphylococcus aureus, UniProt Q9S446, N24DEL); experiment: Inhibition of Staphylococcus aureus sortase A N24 deletion mutant using Abz-LPATG-Dnp as substrate preincubated for 20 mins followed by substrate addition by FRET assay
[3] = target: T1, Sortase A; experiment: Inhibition of Staphylococcus aureus Sortase A N24 deletion mutant transpeptidation using IsdA64-323 as substrate preincubated for 20 mins followed by substrate addition and measured after 1.5 hrs by SDS-PAGE analysis

| Structure (SMILES) | MIC [1] | IC50 [2] | IC50 [3] |
| --- | --- | --- | --- |
| Cc1ccc(COc2ccc(/C=C/C=C3C(=O)NC(=O)NC3=O)cc2)cc1 | > 128 µg/mL | 1100 nM | – |
| O=C1NC(=O)C(=C/C=C/c2ccc(OCC(=O)c3ccc[nH]3)cc2)C(=O)N1 | > 128 µg/mL | 500 nM | 15300 nM |
| CCCCc1ccc(COc2ccc(/C=C/C=C3C(=O)NC(=O)NC3=O)cc2)cc1 | > 128 µg/mL | > 50000 nM | – |
| COc1cccc(/C=C/C=C2C(=O)NC(=O)NC2=O)c1 | 128 µg/mL (≈ 470 µM) | 2100 nM | – |
| O=C1NC(=O)C(=C/C=C/c2cc(Cl)cc(Cl)c2)C(=O)N1 | 64 µg/mL (≈ 206 µM) | 2000 nM | – |
| COc1ccc(/C=C/C=C2C(=O)NC(=O)NC2=O)cn1 | > 128 µg/mL | 2300 nM | – |
| O=C1NC(=O)C(=C/C=C/c2ccc(Cl)c(Cl)c2)C(=O)N1 | 32 µg/mL (≈ 103 µM) | 1000 nM | – |
| COc1ccc(COc2ccc(/C=C/C=C3C(=O)NC(=O)NC3=O)cc2)cc1 | > 128 µg/mL | 1600 nM | – |
| O=C1NC(=O)C(=C/C=C/c2ccc(F)cc2)C(=O)N1 | > 128 µg/mL | 1300 nM | 7400 nM |
| O=C1NC(=O)C(=C/C=C/c2ccc(OCc3ccc(C(F)(F)F)cc3)cc2)C(=O)N1 | > 128 µg/mL | 6500 nM | – |
| O=C1NC(=O)C(=C/C=C/c2ccc(OCc3ccsc3)cc2)C(=O)N1 | > 128 µg/mL | 700 nM | – |
| CCCOc1ccc(/C=C/C=C2C(=O)NC(=O)NC2=O)cc1 | > 128 µg/mL | 700 nM | 8100 nM |
| CC(C)(C)c1ccc(COc2ccc(/C=C/C=C3C(=O)NC(=O)NC3=O)cc2)cc1 | 128 µg/mL (≈ 316 µM) | > 50000 nM | – |
| COc1ccc(/C=C/C=C2C(=O)NC(=S)NC2=O)cc1 | > 128 µg/mL | 2800 nM | – |
| O=C1NC(=O)C(=C/C=C/c2ccc(OC(=O)CNC(=O)OCc3ccccc3)cc2)C(=O)N1 | > 128 µg/mL | 1800 nM | – |
| O=C1NC(=O)C(=C/C=C/c2ccc(OCC(=O)c3ccco3)cc2)C(=O)N1 | > 128 µg/mL | 800 nM | 24600 nM |
| O=C1NC(=O)C(=C/C=C/c2ccc(OCc3ccc([N+](=O)[O-])cc3)cc2)C(=O)N1 | > 128 µg/mL | 1300 nM | – |
| NC(=O)COc1ccc(/C=C/C=C2C(=O)NC(=O)NC2=O)cc1 | > 128 µg/mL | 900 nM | – |
| COC(=O)c1ccc(/C=C/C=C2C(=O)NC(=O)NC2=O)cc1 | > 128 µg/mL | 2200 nM | – |
| O=C1NC(=O)C(=C/C=C/c2ccc(OCc3cccnc3)cc2)C(=O)N1 | > 128 µg/mL | > 50000 nM | – |
| O=C1NC(=O)C(=CNc2ccc(Br)cc2)C(=O)N1 | > 128 µg/mL | > 50000 nM | – |
| O=C1NC(=O)C(=C/C=C/c2ccco2)C(=O)N1 | > 128 µg/mL | 1400 nM | – |
| COc1ccc(/C(C#N)=C/C=C2C(=O)NC(=O)NC2=O)cc1 | 128 µg/mL (≈ 431 µM) | 4700 nM | – |
| CSCC[C@H](NC(=O)OCc1ccccc1)C(=O)Oc1ccc(/C=C/C=C2C(=O)NC(=O)NC2=O)cc1 | 128 µg/mL (≈ 244 µM) | 6900 nM | – |
| CC(=O)Oc1ccc(/C=C/C=C2C(=O)NC(=O)NC2=O)cc1 | > 128 µg/mL | 1800 nM | – |
| COC(=O)COc1ccc(/C=C/C=C2C(=O)NC(=O)NC2=O)cc1 | > 128 µg/mL | 1000 nM | – |
| CC(C)c1ccc(/C=C/C=C2C(=O)NC(=O)NC2=O)cc1 | 32 µg/mL (≈ 113 µM) | 1800 nM | – |
| COC(=O)c1ccc(COc2ccc(/C=C/C=C3C(=O)NC(=O)NC3=O)cc2)cc1 | > 128 µg/mL | > 50000 nM | – |
